The values that follow come from US5663182A, “Antipsychotic method” (priority 1996, dated 1997).

Where a name gives a salt, the structure may show the parent alone.

Experiment [1] addresses muscarinic receptors. Description: 3H-oxotremorine-M binding assay. The conditions noted are these: 3 nM 3H-oxotremorine-M, rat cerebral cortical membranes, 15 min 25° C.; read-out: Inhibition of 3H-Oxo. The method, then:
Each compound was tested to determine the affinity of the compound for the muscarinic receptors using the following procedure.
For each in vitro binding, male Sprague-Dawley (Harlan Sprague-Dawley, Indianapolis, Ind.) rats weighing from about 100 to about 150 grams each were sacrificed by decapitation. The brains were quickly removed and the cerebral cortex were dissected from the brain. The cerebral cortex tissue was homogenized in 10 volumes of 0.32 M sucrose and […] about 10 minutes at about 1000 x g. The supernatant was centrifuged at about 12,000 x g for about 10 minutes and the resulting pellet was resuspended in 20 mM tris-Cl, pH 7.4. The resuspended pellet was centrifuged again for about 10 minutes at about 50,000 x g. The resulting homogenate was preincubated for about 10 minutes at about 25° C. and centrifuged again for about 10 minutes at about 50,000 x g. The pellet was resuspended at 1 gram of pellet per 3 ml of buffer and frozen at about -80° C. until used.
The aforementioned homogenates mixture was incubated for about 15 minutes at about 25° C. and then the homogenates were filtered through glass filters (Whatman, GF/C) with vacuum. The filters were washed 3 times with about 2 ml of cold tris-Cl buffer, and placed in scintillation vials containing about 10 ml of scintillation fluid (Ready Protein+, Beckman, Fullerton, Calif.). Radioactivity trapped on the filters was determined by liquid scintillation spectrometry. Nonspecific binding was determined using 1 μM atropine. […] DeLean, A. et al. Am.

The test system of experiment [2] is Rats. Description: Conditioned avoidance behavior in rats. It is filed as in vivo, rat. Conditions: screening dose 3.0 mg/kg s.c. 30 min before session. An excerpt: In a conditioned avoidance test, animals learn to respond during a conditioned stimulus in order to avoid mild shock presentation. A response during the conditioned stimulus is termed an avoidance respone, a response during shock is termed an escape response; a response failure is when the animal fails to respond during either the conditioned stimlus or the shock presentation and is indicative of motor impairment. […] Antipsychotic drugs decrease the percentage of avoidance responses without interfering with the ability of the animal to respond since the animals do emit escape responses. The percentage of response failures is considered a measure of motor impairment.
Rats were required to press a response lever in an experimental chamber in order to avoid or escape foot-shock. Each experimental session consisted of 50 trials. During each trial, the chamber was illuminated and a tone presented for a maximum of 10 sec. A response during the tone immediately terminated the tone and the houselight, ending the trial. In the absence of a response during the tone alone, tone+foot-shock (2.0 mA) was presented for a maximum of 10 sec. A response during shock presentation immediately terminated the shock, the tone and the houselight, ending the trial.
For drug screening, a dose of 3.0 mg/kg was administered s.c. 30 min before the start of the experimental session.

With `CCCCOc1nsnc1[C@H]1CN2CCC[C@H]1C2` (relative stereo) [Compound 120, Exo-6-(3-butoxy-1,2,5-thiadiazol-4-yl)-1-azabicyclo[3.2.1]octane oxalate], the IC50 in experiment [1] came out at 0.9 nM. Besides, the “Conditioned Avoidance % Avoidance Responses” value in experiment [2] was 27%.

As to `CCCCOc1nsnc1C1CN2CCC1CC2.O=C(O)C(=O)O` (centres unmarked) [Compound 46, 3-(3-Butoxy-1,2,5-thiadiazol-4-yl)-1-azabicyclo[2.2.2]octane oxalate], the IC50 in experiment [1] stood at 1.6 nM. For the same compound, in experiment [2], the “Conditioned Avoidance % Avoidance Responses” value is given as 30%.

In the case of `CCOc1nsnc1[C@H]1CN2CCC[C@H]1C2` (relative stereo) [Compound 19, Exo-6-(3-ethoxy-1,2,5-thiadiazol-4-yl)-1-azabicyclo[3.2.1]octane oxalate], the IC50 in experiment [1] was found to be 1.2 nM. Also, in experiment [2], the “Conditioned Avoidance % Avoidance Responses” value stood at 73%.

With `CCCCSc1nsnc1C1CN2CCC1CC2.O=C(O)/C=C/C(=O)O` (centres unmarked) [Compound 13, 3-(3-Butylthio-1,2,5-thiadiazol-4-yl)-1-azabicyclo[2.2.2]octane fumarate], the IC50 in experiment [1] was determined as 1.9 nM. Further, the “Conditioned Avoidance % Avoidance Responses” value in experiment [2] is listed as 18%.

Take `CCSc1nsnc1C1CN2CCC1CC2.O=C(O)C(=O)O` (centres unmarked) [Compound 52, 3-(3-Ethylthio-1,2,5-thiadiazol-4-yl)-1-azabicyclo[2.2.2]octane oxalate]: the IC50 in experiment [1] is 1.8 nM. Moreover, the “Conditioned Avoidance % Avoidance Responses” value in experiment [2] came to 63%.

In the case of `CCCCCCOc1nsnc1C1CN2CCC1CC2.O=C(O)/C=C/C(=O)O` (centres unmarked) [Compound 11, 3-(3-Hexyloxy-1,2,5-thiadiazol-4-yl)-1-azabicyclo[2.2.2]octane fumarate], the IC50 in experiment [1] was found to be 6 nM. The “Conditioned Avoidance % Avoidance Responses” value in experiment [2] is 11%.

On to `CSc1nsnc1[C@H]1CN2CCC[C@H]1C2` (relative stereo) [Compound 74, Exo-6-(3-methylthio-1,2,5-thiadiazol-4-yl)-1-azabicyclo[3.2.1]octane oxalate], for which, in experiment [1], the IC50 was found to be 1.4 nM. Also, in experiment [2], the “Conditioned Avoidance % Avoidance Responses” value stood at 22%.

As for `FC(F)(F)CCCSc1nsnc1C1CN2CCCC1C2` (single isomer, unassigned; (+)) [Compound 167, (+)-Exo-6-(3-(4,4,4-trifluorobutylthio)-1,2,5-thiadiazol-4-yl)-1-azabicyclo-[3.2.1]octane oxalate], in experiment [1], the IC50 stood at 0.76 nM. Moreover, the “Conditioned Avoidance % Avoidance Responses” value in experiment [2] (3 mg/kg) was determined as 56%.

With `CCCCSc1nsnc1[C@H]1CN2CCC[C@H]1C2` (relative stereo) [Compound 30, Exo-6-(3-butylthio-1,2,5-thiadiazol-4-yl)-1-azabicyclo[3.2.1]octane oxalate], the IC50 in experiment [1] amounted to 0.4 nM. In addition, the “Conditioned Avoidance % Avoidance Responses” value in experiment [2] was 32%.

As to `CCCCCCOc1nsnc1[C@H]1CN2CCC[C@H]1C2` (relative stereo) [Compound 122, Exo-6-(3-hexyloxy-1,2,5-thiadiazol-4-yl)-1-azabicyclo[3.2.1]octane oxalate], in experiment [1], the IC50 was 2.1 nM. Further, the “Conditioned Avoidance % Avoidance Responses” value in experiment [2] turned out to be 1%.

Take `Cc1nnc(SCCCCSc2nsnc2C2CN3CCC2CC3)s1` (centres unmarked) [Compound 107, oxalate]: the IC50 in experiment [1] was 1 nM. Besides, the “Conditioned Avoidance % Avoidance Responses” value in experiment [2] is listed as 52%.

For `O=C(O)/C=C/C(=O)O.c1ccc(OCCSc2nsnc2C2CN3CCC2CC3)cc1` (centres unmarked) [Compound 102, 3-(3-(2-Phenoxyethylthio)-1,2,5-thiadiazol-4-yl)-1-azabicyclo[2.2.2]octane fumarate], in experiment [1], the IC50 was 4.5 nM. Moreover, in experiment [2], the “Conditioned Avoidance % Avoidance Responses” value is given as 3%.

As to `CCCOc1nsnc1[C@H]1CN2CCC[C@H]1C2` (relative stereo) [Compound 119, Exo-6-(3-propoxy-1,2,5-thiadiazol-4-yl)-1-azabicyclo[3.2.1]octane oxalate], the IC50 in experiment [1] is 0.9 nM. For the same compound, in experiment [2], the “Conditioned Avoidance % Avoidance Responses” value is 29%.

`CCCSc1nsnc1C1CN2CCCC1C2` (single isomer, unassigned) [Compound 114, (+)-Exo-6-(3-propylthio-1,2,5-thiadiazol-4-yl)-1-azabicyclo[3.2.1]octane (-) D-tartrate]: the IC50 in experiment [1] is 0.45 nM. Besides, in experiment [2] (3 mg/kg), the “Conditioned Avoidance % Avoidance Responses” value came to 39%.

`CCCCSc1nsnc1C1CN2CCCC1C2` (single isomer, unassigned) [Compound 112, (+)-Exo-6-(3-butylthio-1,2,5-thiadiazol-4-yl)-1-azabicyclo[3.2.1]octane (-) D-tartrate]: the IC50 in experiment [1] worked out at 0.6 nM. Further, the “Conditioned Avoidance % Avoidance Responses” value in experiment [2] (3 mg/kg) stood at 2%.

On to `CSc1nsnc1C1CN2CCC1CC2.O=C(O)C(=O)O` (centres unmarked) [Compound 131, 3-(3-Methylthio-1,2,5-thiadiazol-4-yl)-1-azabicyclo[2.2.2]octane oxalate], for which, in experiment [1], the IC50 is 2.8 nM. Also, the “Conditioned Avoidance % Avoidance Responses” value in experiment [2] amounted to 53%.

With `CCCSc1nsnc1[C@H]1CN2CCC[C@H]1C2` (relative stereo) [Compound 58, Exo-6-(3-propylthio-1,2,5-thiadiazol-4-yl)-1-azabicyclo[3.2.1]octane oxalate], the IC50 in experiment [1] turned out to be 0.8 nM. The “Conditioned Avoidance % Avoidance Responses” value in experiment [2] is given as 41%.

As for `CC(C)CCCSc1nsnc1[C@@H]1CN2CCC[C@@H]1C2` [Compound 158, (-)-Exo-6-(3-isohexylthio-1,2,5-thiadiazol-4-yl)-1-azabicyclo[3.2.1]octane oxalate], the IC50 in experiment [1] amounted to 10 nM. Besides, in experiment [2], the “Conditioned Avoidance % Avoidance Responses” value was determined as 47%.

As for `c1ccc(OCCSc2nsnc2[C@H]2CN3CCC[C@H]2C3)cc1` (relative stereo) [Compound 133, Exo-6-(3-(2-phenoxyethylthio)-1,2,5-thiadiazol-4-yl)-1-azabicyclo[3.2.1]octane oxalate], the IC50 in experiment [1] was 1.3 nM. Besides, in experiment [2], the “Conditioned Avoidance % Avoidance Responses” value came out at 1%.

As for `CCCCCCSc1nsnc1[C@H]1CN2CCC[C@H]1C2` (relative stereo) [Compound 29, Exo-6-(3-hexylthio-1,2,5-thiadiazol-4-yl)-1-azabicyclo[3.2.1]octane oxalate], the IC50 in experiment [1] is 1.2 nM. In addition, the “Conditioned Avoidance % Avoidance Responses” value in experiment [2] was found to be 29%.

`CCCSc1nsnc1C1CN2CCC1CC2.O=C(O)C(=O)O` (centres unmarked) [Compound 53, 3-(3-Propylthio-1,2,5-thiadiazol-4-yl)-1-azabicyclo[2.2.2]octane oxalate]: in experiment [1], the IC50 is 0.9 nM. Moreover, the “Conditioned Avoidance % Avoidance Responses” value in experiment [2] was 41%.

With `Cn1nnnc1SCCCCSc1nsnc1C1CN2CCC1CC2` (centres unmarked) [Compound 106, oxalate], in experiment [1], the IC50 came out at 2.8 nM. Besides, in experiment [2], the “Conditioned Avoidance % Avoidance Responses” value worked out at 55%.

Regarding `CC(C)CCCSc1nsnc1[C@H]1CN2CCC[C@H]1C2` [Compound 157, (+)-Exo-(5R,6R)-6-(3-isohexylthio-1,2,5-thiadiazol-4-yl)-1-azabicyclo[3.2.1]-octane (+) L-tartrate], the IC50 in experiment [1] is 10 nM. In addition, the “Conditioned Avoidance % Avoidance Responses” value in experiment [2] was found to be 12%.

Take `CC(C)CCSc1nsnc1[C@H]1CN2CCC[C@H]1C2` (relative stereo) [Compound 77, Exo-6-(3-isopentylthio-1,2,5-thiadiazol-4-yl)-1-azabicyclo[3.2.1]octane]: in experiment [1], the IC50 was found to be 2.7 nM. In addition, the “Conditioned Avoidance % Avoidance Responses” value in experiment [2] is reported as 85%.

Regarding `N#CCSc1nsnc1C1CN2CCC1CC2.O=C(O)C(=O)O` (centres unmarked) [Compound 103, 3-(3-Cyanomethylthio-1,2,5-thiadiazol-4-yl)-1-azabicyclo[2.2.2]octane oxalate], in experiment [1], the IC50 was found to be 2.7 nM. In addition, the “Conditioned Avoidance % Avoidance Responses” value in experiment [2] stood at 51%.

As for `CCCCSc1nsnc1C1CN2CCC1CC2.O=C(O)C(O)C(O)C(=O)O` (single isomer, unassigned) [Compound 56, (+) 3-(3-Butylthio-1,2,5-thiadiazol-4-yl)-1-azabicyclo[2.2.2]octane (-)D-tartrate], the IC50 in experiment [1] was 0.4 nM. Also, in experiment [2], the “Conditioned Avoidance % Avoidance Responses” value is 6%.

As for `N#Cc1ccc(CSc2nsnc2[C@H]2CN3CCC[C@H]2C3)cc1` (relative stereo) [Compound 82, Exo-6-(3-(4-cyanobenzylthio)-1,2,5-thiadiazol-4-yl)-1-azabicyclo[3.2.1]octane oxalate], in experiment [1], the IC50 was 1.3 nM. Also, in experiment [2], the “Conditioned Avoidance % Avoidance Responses” value came out at 24%.

With `CCCSc1nsnc1C1CN2CCCC1C2` (single isomer, unassigned; (+)) [Compound 113, (+)-Exo-6-(3-propylthio-1,2,5-thiadiazol-4-yl)-1-azabicyclo[3.2.1]octane (+) L-tartrate], the IC50 in experiment [1] came out at 0.8 nM. For the same compound, the “Conditioned Avoidance % Avoidance Responses” value in experiment [2] (3 mg/kg) worked out at 19%.
